Here are results for 11 compounds from PMC9166712, “Fluorescent probes for monitoring myeloperoxidase-derived hypochlorous acid: a comparative study” (Scientific Reports, 2022).

Read-outs that look alike come from different tables or passages of the source.

The conditions of data set [1]: cited from earlier work.
In data set [2] the target is T1, MPO (Homo sapiens, UniProt P05164). The data set is described as follows: Z' parameter of the MPO/H2O2/Cl- assays. To be noted: both end-point (20 min) and kinetic (initial rates over 5 min) measurements. Set-up: MPO from human neutrophils was obtained from Athens Research and Technology; purchased Athens Research and Technology (Athens, GA); host or cells: human neutrophils (natural source, donor material). As for the experimental part: The Z’ parameter is a measure of the assay quality in terms of its applicability to screen for bioactive compounds in cell-free or cell-based systems. The Z’ value of 0.5 or higher is generally accepted for the application of any assay for high throughput screening (HTS) of large chemical libraries. For the probes tested, the Z’ parameter was calculated on the basis of end-point measurements (fluorescence measured at a specific time of incubation) and kinetic measurements (rates of fluorescence increase), according to the Eq. 5. In the end-point measurements the Z’ values were calculated for the time of incubation equal to 20 min. To calculate the kinetic Z’ the initial rates of fluorescent product formation over 5 min were used. […] The lowest Z’ values around 0.7 were obtained for the NBD-TM probe. All the probes produced the Z’ values compatible with HTS applications.
T1 sequence (P05164 279-745 limits assumed): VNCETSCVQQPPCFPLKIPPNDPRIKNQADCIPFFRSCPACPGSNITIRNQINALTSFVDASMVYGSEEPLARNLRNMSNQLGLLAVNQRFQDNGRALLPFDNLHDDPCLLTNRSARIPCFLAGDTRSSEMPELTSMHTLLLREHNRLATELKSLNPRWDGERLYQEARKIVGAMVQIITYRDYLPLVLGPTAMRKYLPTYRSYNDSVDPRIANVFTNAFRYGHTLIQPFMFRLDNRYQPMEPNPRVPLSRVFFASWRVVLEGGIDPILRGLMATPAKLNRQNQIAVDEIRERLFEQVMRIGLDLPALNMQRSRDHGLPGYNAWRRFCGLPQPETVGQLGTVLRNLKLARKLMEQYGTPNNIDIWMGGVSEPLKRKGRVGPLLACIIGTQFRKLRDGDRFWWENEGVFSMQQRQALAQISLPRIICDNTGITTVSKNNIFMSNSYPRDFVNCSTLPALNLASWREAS
T1 sequence (P05164 165-273 limits assumed): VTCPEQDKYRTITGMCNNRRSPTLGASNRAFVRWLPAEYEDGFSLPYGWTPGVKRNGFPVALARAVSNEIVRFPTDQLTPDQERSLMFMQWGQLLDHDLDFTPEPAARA
The Z’ factor is a dimensionless coefficient and was calculated on the basis of data presented in Fig. 3 according to the equation below (Eq. 5)[57].5 Z^′=1-3S.D.control+-3S.D.control -/meancontrol +-meancontrol -, where S.D.control+ and S.D.control- are the standard deviation values, and meancontrol+ and meancontrol- are the mean values for the positive and negative control, respectively. The value of Z ' above 0.5 means good quality of the assay. The higher value of Z ' parameter means the better quality of the assay. This parameter cannot reach value higher than 1.

Data set [3] in a line: Competition kinetics of APC and APF with boronate reference for HOCl. To be noted: FLBA (for APC) or CBA (for APF) 25 µM as reference, HOCl 5 µM, pH 7.4. Type of data set: physicochemical. As for the experimental part:
The rate constants of 1.8 × 10^4 M^−1s^−1 and 1.1 × 10^4 M^−1s^−1 were obtained for CBA and FLBA, respectively, which are typical values reported for this class of probes (Fig. 4a,b)[29],[36],[38],[45]. […] The highest rate constant was obtained for the NBD-TM probe which was equal to 1.0 × 10^7 M^−1s^−1. This rate constant was calculated using a second order rate constant of 1.8 × 10^4 M^−1s^−1 for the reference compound (CBA). The determined value of the rate constant for NBD-TM is consistent with the reaction rate constants reported for other thioethers with HOCl[41],[46].
(§1) Supplementary Figure S1. (a) Decrease of COH fluorescence in the incubation mixtures containing […]
(§2) in the presence of catalase (100 U/ml, black); in the absence of NaCl (green); in the absence of NaCl but in the presence of catalase (dark blue); in the absence of MPO (light blue); in th e absence of MPO but in the presence of catalase (pink). ( b), (c) same as (a) but instead of COH, incubation mixtures contained fluorescein and NBD -TSO, respectively.
Supplementary Figure S2. The relationship used to determine the rate constant between APF and HOCl (a), or […] and HOCl (b), according to the competition kinetic approach. The solid lines in the panel (a) and (b) represent the linear fittings to the equation […]
(2kFLBA+HOCl = 1,11 × 104 M-1s-1). […] The concentrations of COH and fluorescein were determined by LC/MS. […]

Data set [4] can be described thus: Stability of probe stock solutions. Type of data set: physicochemical. The conditions noted are these: stock in acetonitrile or water/acetonitrile (1:1 v/v), 6 °C in the dark. As for the experimental part:
In the case of FLBA and APF, the two millimolar probe solutions were prepared in the water/acetonitrile mixture (1:1 v/v).

A short description of data set [5]: Stability of fluorophores in the MPO/H2O2/Cl- system. The conditions noted are these: fluorophore 5 µM, MPO 1.2 nM, H2O2 10 µM, NaCl 0.1 M, pH 7.4. Type of data set: physicochemical. As for the experimental part:
To check the stability of the COH, FL, and NBD-TSO fluorescence signal under the oxidizing conditions of MPO/H2O2/Cl^–, the fluorophores were incubated under the same reaction conditions, as described above for the five probes used in the study (Supplementary Figure S1). […] Overall, the fluorophores formed from the probes used may undergo consumption in the presence of MPO, H2O2 and Cl^–, due to their reaction with HOCl and/or via peroxidatic activity of MPO in the absence of Cl^–. This is, however, expected to occur only under the condition of excess of the oxidants (H2O2 and/or HOCl), as evidenced by the stable fluorescence signals of the products observed within 1 h of incubation (Fig. 3). The experimental design for monitoring HOCl involving probes producing such fluorophores should, therefore, take into account potential consumption of the fluorescent product, when the amount of the oxidant exceeds the probe availability.
as §1, §2
Supplementary Figure S2. The relationship used to determine the rate constant between APF and HOCl (a), or […] and HOCl (b), according to the competition kinetic approach. The solid lines in the panel (a) and (b) represent the linear fittings to the equation
1 = 1 + 1 kAPC/or APF [APC/orAPF]. In the case of reaction between […]
(2kFLBA+HOCl = 1,11 × 104 M-1s-1). In the case of APF, the samples contained APF (0 – 100 µM), HOCl (5 µM), and CBA (25 µM) as a reference compound (2kCBA+HOCl = 1,80 × 104 M-1s-1). The concentrations of COH and fluorescein were determined by LC/MS. […]

Data set [6] addresses T1, MPO. To be noted: read-out: recommended average IC50 value; average of CBA, FLBA and NBD-TM probes. As for the experimental part: (§3) Mixtures contained MPO (1.2 nM), H2O2 (10 µM), NaCl (0.1 M), phosphate buffer (50 mM, pH 7.4), and the appropriate probe (20 µM). […] In the calculations the initial rates of probes oxidation were used. (Data are means ± standard deviation of three independent experiments).

Data set [7] concerns the target T1, MPO. The conditions noted are these: read-out: Azide anion IC50, MPO 1.2 nM, H2O2 10 µM, pH 7.4. As for the experimental part: as §3
MPO from human neutrophils was obtained from Athens Research and Technology (Athens, GA, According to the Certificate of Origin, the material used has been obtained from an FDA licensed collection center. Further the donors has given by signature full informed consent for the material to be used in commercial scientific research). […] Fluorescent probes were synthetized according to the procedures described in the literature. The synthesis of fluorescein pinacol boron ester (Fl-B) was performed based on the procedures published by Dickinson et al. and Rios et al.[58],[59]. The obtained boronate was then hydrolyzed to fluorescein boronic acid (FLBA). The synthesis of APF was performed based on the procedure published by Setsukinai and cooworkers. […] The detailed description of synthetic procedures can be found in the Supplementary Information. The CBA synthesis is described elsewhere[37],[61].
The lyophilized powder of MPO was dissolved in distilled water accordingly to the supplier recommendation and, if required, stored at 6 °C by the day of analysis. Such prepared solution was then diluted with phosphate buffer, pH 7.4, to the appropriate concentration and the volume of 0.5–2 µL/well depending on the activity was pipetted directly to 96-well plate (Costar 3840). […] Reactions were stared adding 100 µl/well of 20 µM hydrogen peroxide solution.

Data set [8] can be described thus: Effect of DMSO on HOCl-induced probe oxidation. The conditions noted are these: 20 µM probe, 10 µM HOCl, pH 7.4. Type of data set: physicochemical. The source says:
DMSO is a solvent well tolerated by cells and it is often used to dissolve organic compounds intended for cell culture studies. Most chemical libraries for HTS applications use DMSO as the solvent. However, DMSO reacts directly with HOCl with a second-order rate constant of 350 ± 40 M^−1s^−1 and it has been shown that it may interfere with oxidation of boronate probes by HOCl[49]. Thus, the influence of DMSO additive on the observed fluorescence signal generated in the reaction between HOCl and the studied probes was evaluated. In this experiment, the incubation mixtures contained the chosen probe (20 µM), phosphate buffer (50 mM, pH 7.4), and DMSO in the amounts between 0–5% v/v (0–0.7 M). The reaction with HOCl was initiated by the bolus addition of 1 mM sodium hypochlorite to obtain the final HOCl concentration of 10 µM. In the case of NBD-TM that reacts rapidly and stoichiometrically (1:1 ratio) with HOCl[44] about 10 µM of NBD-TSO was formed (Fig. 6). […] The presence of 0.5% v/v (0.07 M) or higher concentrations of DMSO was sufficient to completely scavenge HOCl and block the fluorescence increase.
Incubation mixtures contained 20 µM of a probe, 10 µM HOCl, 0–5% v/v (0–0.7 M) DMSO, and 50 mM phosphate buffer (pH 7.4). (Representative result of three independent experiments is shown. Points represent means ± S.D.)

With `C[S+](C)[O-]` [DMSO], the “second-order rate constant of the reaction with HOCl” value in data set [1] is 350 ± 40 M⁻¹ s⁻¹.
In the case of `Nc1ccc(Oc2ccc3c(-c4ccccc4C(=O)O)c4ccc(=O)cc-4oc3c2)cc1` [APF, 3’-(p-aminophenyl)-fluorescein], on MPO [2], the “Z' value” is given as “around 0.9”. The “rate constant with HOCl by competition kinetics compared with stopped-flow value” in data set [3] is recorded as “nearly identical rate constants”. The “stability of stock solution” value in data set [4] is on record as “stable at least one-month”.
Regarding `O=C1OC2(c3ccc(O)cc3Oc3cc(O)ccc32)c2ccccc21` [fluorescein], the “stability of the fluorescence signal” value in data set [5] is on record as “a slight decrease in the fluorescence intensity”.
As to `O=C(O)c1ccccc1-c1c2ccc(=O)cc-2oc2cc(B(O)O)ccc12` [FLBA, fluorescein boronic acid], the “Z' value” on MPO [2] is given as “around 0.9”. Further, the “stability of stock solution” value in data set [4] is on record as “stable at least one-month”.
With `[N-]=[N+]=[N-]` [Azide anion, sodium azide], the half-inhibitory concentration (IC50) on MPO [6] came to 700 nM; on MPO [7] (APC probe 20 µM, NaCl 0.1 M), 1940 nM; on MPO [7] (APF probe 20 µM, NaCl 0.1 M), 2370 nM; at MPO [7] (Amplex Red 20 µM, no NaCl) it was 1040 nM; on MPO [7] (Amplex Red 20 µM, no NaCl, listed as N3^–) it was 1000 nM; on MPO [7] (CBA probe 20 µM, NaCl 0.1 M) it was 810 nM. Moreover, the IC50 came to 540 nM at MPO [7] (FLBA probe 20 µM, NaCl 0.1 M) and 630 nM at MPO [7] (NBD-TM probe 20 µM, NaCl 0.1 M).
For `CSCC[C@H](N)C(=O)O` [L-methionine], the “reaction rate constant with HOCl (^2k)” value in data set [1] is 3.4e+07 M⁻¹ s⁻¹.
On to 7-(p-aminophenyl)-coumarin [APC], for which, on MPO [2], the “Z' value” is “around 0.9”. Further, the “rate constant with HOCl by competition kinetics compared with stopped-flow value” in data set [3] is listed as “nearly identical rate constants”.
With `O=[N+]([O-])c1ccc(N2CCSCC2)c2nonc12` [NBD-TM, 4-thiomorpholino-7-nitrobenz-2-oxa-1,3-diazole], the “decrease of NBD-TSO concentration by DMSO” value in data set [8] (0.5% (0.07 M) DMSO) is recorded as “about 5%”; in data set [8] (1% (0.14 M) DMSO), “about 10%”; in data set [8] (5% (0.7 M) DMSO) it was roughly 35%. At MPO [2], the “Z' value” is reported as “around 0.7”.
Turning to `O=c1ccc2ccc(B(O)O)cc2o1` [CBA, coumarin boronic acid], the “Z' value” at MPO [2] is given as “around 0.9”. Besides, the “stability of stock solution” value in data set [4] is reported as “stable at least one-month”.
In the case of `O=c1ccc2ccc(O)cc2o1` [COH, 7-hydroxycoumarin], the “stability of the fluorescence signal” value in data set [5] is given as “decreasing with the time of incubation”.
For the compound `O=[N+]([O-])c1ccc(N2CC[S+]([O-])CC2)c2nonc12` [NBD-TSO], the “stability of the fluorescence signal” value in data set [5] was “slowly decomposing or precipitated during the time of incubation”.

As usually defined, the IC50 is the concentration at which inhibition is half-maximal.
